# Results as given in the NIST ThermoML archive (doi:10.1021/acs.jced.8b00201).
# Numbers after ± are expanded uncertainties.
# Assay: xn = mol fraction of the nth substance listed
# Settings: 100 kPa, Liquid; for viscosity: Concentric cylinders viscometry; for mass density: Vibrating tube method
smiles,measurement,setting,value
O=C1CCCCC1 [cyclohexanone] + CCCCCO,viscosity,"293.15 K, x1 = 0.0803",3.57 ± 0.18 mPa·s
same,viscosity,"293.15 K, x1 = 0.1609",3.16 ± 0.16 mPa·s
same,viscosity,"293.15 K, x1 = 0.2403",2.8 ± 0.2 mPa·s
same,viscosity,"293.15 K, x1 = 0.3473",2.41 ± 0.12 mPa·s
same,viscosity,"293.15 K, x1 = 0.4404",2.17 ± 0.11 mPa·s
same,viscosity,"293.15 K, x1 = 0.5619",1.96 ± 0.1 mPa·s
same,viscosity,"293.15 K, x1 = 0.6501",1.88 ± 0.09 mPa·s
same,viscosity,"293.15 K, x1 = 0.747",1.87 ± 0.09 mPa·s
same,viscosity,"293.15 K, x1 = 0.8494",1.98 ± 0.1 mPa·s
same,viscosity,"293.15 K, x1 = 0.9404",2.12 ± 0.11 mPa·s
same,viscosity,"293.15 K, x1 = 1",2.3 ± 0.12 mPa·s
same,mass density,"293.15 K, x1 = 0.0803",825.1 ± 20 kg/m3
same,mass density,"293.15 K, x1 = 0.1609",835.7 ± 20 kg/m3
same,mass density,"293.15 K, x1 = 0.2403",846.2 ± 20 kg/m3
same,mass density,"293.15 K, x1 = 0.3473",860.4 ± 20 kg/m3
same,mass density,"293.15 K, x1 = 0.4404",872.7 ± 20 kg/m3
same,mass density,"293.15 K, x1 = 0.5619",889 ± 20 kg/m3
same,mass density,"293.15 K, x1 = 0.6501",900.9 ± 20 kg/m3
same,mass density,"293.15 K, x1 = 0.747",914 ± 20 kg/m3
same,mass density,"293.15 K, x1 = 0.8494",928 ± 20 kg/m3
same,mass density,"293.15 K, x1 = 0.9404",940.5 ± 20 kg/m3
same,mass density,"293.15 K, x1 = 1",948.8 ± 20 kg/m3
same,viscosity,"298.15 K, x1 = 0.0803",3.1 ± 0.16 mPa·s
same,viscosity,"298.15 K, x1 = 0.1609",2.77 ± 0.14 mPa·s
same,viscosity,"298.15 K, x1 = 0.2403",2.49 ± 0.13 mPa·s
same,viscosity,"298.15 K, x1 = 0.3473",2.15 ± 0.11 mPa·s
same,viscosity,"298.15 K, x1 = 0.4404",1.96 ± 0.1 mPa·s
same,viscosity,"298.15 K, x1 = 0.5619",1.8 ± 0.09 mPa·s
same,viscosity,"298.15 K, x1 = 0.6501",1.74 ± 0.09 mPa·s
same,viscosity,"298.15 K, x1 = 0.747",1.74 ± 0.09 mPa·s
same,viscosity,"298.15 K, x1 = 0.8494",1.83 ± 0.09 mPa·s
same,viscosity,"298.15 K, x1 = 0.9404",1.97 ± 0.1 mPa·s
same,viscosity,"298.15 K, x1 = 1",2.09 ± 0.11 mPa·s
same,mass density,"298.15 K, x1 = 0.0803",821.1 ± 20 kg/m3
same,mass density,"298.15 K, x1 = 0.1609",831.6 ± 20 kg/m3
same,mass density,"298.15 K, x1 = 0.2403",841.9 ± 20 kg/m3
same,mass density,"298.15 K, x1 = 0.3473",855.8 ± 20 kg/m3
same,mass density,"298.15 K, x1 = 0.4404",868 ± 20 kg/m3
same,mass density,"298.15 K, x1 = 0.5619",884.1 ± 20 kg/m3
same,mass density,"298.15 K, x1 = 0.6501",895.8 ± 20 kg/m3
same,mass density,"298.15 K, x1 = 0.747",908.8 ± 20 kg/m3
same,mass density,"298.15 K, x1 = 0.8494",922.6 ± 20 kg/m3
same,mass density,"298.15 K, x1 = 0.9404",934.9 ± 20 kg/m3
same,mass density,"298.15 K, x1 = 1",943.1 ± 20 kg/m3
same,viscosity,"303.15 K, x1 = 0.0803",2.71 ± 0.14 mPa·s
same,viscosity,"303.15 K, x1 = 0.1609",2.44 ± 0.12 mPa·s
same,viscosity,"303.15 K, x1 = 0.2403",2.2 ± 0.11 mPa·s
same,viscosity,"303.15 K, x1 = 0.3473",1.94 ± 0.1 mPa·s
same,viscosity,"303.15 K, x1 = 0.4404",1.77 ± 0.09 mPa·s
same,viscosity,"303.15 K, x1 = 0.5619",1.63 ± 0.08 mPa·s
same,viscosity,"303.15 K, x1 = 0.6501",1.58 ± 0.08 mPa·s
same,viscosity,"303.15 K, x1 = 0.747",1.58 ± 0.08 mPa·s
same,viscosity,"303.15 K, x1 = 0.8494",1.67 ± 0.08 mPa·s
same,viscosity,"303.15 K, x1 = 0.9404",1.78 ± 0.09 mPa·s
same,viscosity,"303.15 K, x1 = 1",1.91 ± 0.1 mPa·s
same,mass density,"303.15 K, x1 = 0.0803",817.3 ± 20 kg/m3
same,mass density,"303.15 K, x1 = 0.1609",827.6 ± 20 kg/m3
same,mass density,"303.15 K, x1 = 0.2403",837.8 ± 20 kg/m3
same,mass density,"303.15 K, x1 = 0.3473",851.6 ± 20 kg/m3
same,mass density,"303.15 K, x1 = 0.4404",863.7 ± 20 kg/m3
same,mass density,"303.15 K, x1 = 0.5619",879.6 ± 20 kg/m3
same,mass density,"303.15 K, x1 = 0.6501",891.2 ± 20 kg/m3
same,mass density,"303.15 K, x1 = 0.747",904.1 ± 20 kg/m3
same,mass density,"303.15 K, x1 = 0.8494",917.8 ± 20 kg/m3
same,mass density,"303.15 K, x1 = 0.9404",930.1 ± 20 kg/m3
same,mass density,"303.15 K, x1 = 1",938.2 ± 20 kg/m3
same,viscosity,"308.15 K, x1 = 0.0803",2.38 ± 0.12 mPa·s
same,viscosity,"308.15 K, x1 = 0.1609",2.14 ± 0.11 mPa·s
same,viscosity,"308.15 K, x1 = 0.2403",1.95 ± 0.1 mPa·s
same,viscosity,"308.15 K, x1 = 0.3473",1.73 ± 0.09 mPa·s
same,viscosity,"308.15 K, x1 = 0.4404",1.6 ± 0.1 mPa·s
same,viscosity,"308.15 K, x1 = 0.5619",1.49 ± 0.08 mPa·s
same,viscosity,"308.15 K, x1 = 0.6501",1.46 ± 0.07 mPa·s
same,viscosity,"308.15 K, x1 = 0.747",1.46 ± 0.07 mPa·s
same,viscosity,"308.15 K, x1 = 0.8494",1.54 ± 0.08 mPa·s
same,viscosity,"308.15 K, x1 = 0.9404",1.64 ± 0.08 mPa·s
same,viscosity,"308.15 K, x1 = 1",1.75 ± 0.09 mPa·s
same,mass density,"308.15 K, x1 = 0.0803",813.4 ± 20 kg/m3
same,mass density,"308.15 K, x1 = 0.1609",823.6 ± 20 kg/m3
same,mass density,"308.15 K, x1 = 0.2403",833.7 ± 20 kg/m3
same,mass density,"308.15 K, x1 = 0.3473",847.4 ± 20 kg/m3
same,mass density,"308.15 K, x1 = 0.4404",859.5 ± 20 kg/m3
same,mass density,"308.15 K, x1 = 0.5619",875.3 ± 20 kg/m3
same,mass density,"308.15 K, x1 = 0.6501",886.8 ± 20 kg/m3
same,mass density,"308.15 K, x1 = 0.747",899.6 ± 20 kg/m3
same,mass density,"308.15 K, x1 = 0.8494",913.2 ± 20 kg/m3
same,mass density,"308.15 K, x1 = 0.9404",925.5 ± 20 kg/m3
same,mass density,"308.15 K, x1 = 1",933.5 ± 20 kg/m3
same,viscosity,"313.15 K, x1 = 0.0803",2.08 ± 0.1 mPa·s
same,viscosity,"313.15 K, x1 = 0.1609",1.9 ± 0.1 mPa·s
same,viscosity,"313.15 K, x1 = 0.2403",1.73 ± 0.09 mPa·s
same,viscosity,"313.15 K, x1 = 0.3473",1.54 ± 0.08 mPa·s
same,viscosity,"313.15 K, x1 = 0.4404",1.43 ± 0.07 mPa·s
same,viscosity,"313.15 K, x1 = 0.5619",1.34 ± 0.07 mPa·s
same,viscosity,"313.15 K, x1 = 0.6501",1.32 ± 0.07 mPa·s
same,viscosity,"313.15 K, x1 = 0.747",1.33 ± 0.07 mPa·s
same,viscosity,"313.15 K, x1 = 0.8494",1.4 ± 0.07 mPa·s
same,viscosity,"313.15 K, x1 = 0.9404",1.5 ± 0.08 mPa·s
same,viscosity,"313.15 K, x1 = 1",1.6 ± 0.08 mPa·s
same,mass density,"313.15 K, x1 = 0.0803",809.6 ± 20 kg/m3
same,mass density,"313.15 K, x1 = 0.1609",819.7 ± 20 kg/m3
same,mass density,"313.15 K, x1 = 0.2403",829.8 ± 20 kg/m3
same,mass density,"313.15 K, x1 = 0.3473",843.4 ± 20 kg/m3
same,mass density,"313.15 K, x1 = 0.4404",855.3 ± 20 kg/m3
same,mass density,"313.15 K, x1 = 0.5619",871 ± 20 kg/m3
same,mass density,"313.15 K, x1 = 0.6501",882.4 ± 20 kg/m3
same,mass density,"313.15 K, x1 = 0.747",895.1 ± 20 kg/m3
same,mass density,"313.15 K, x1 = 0.8494",908.7 ± 20 kg/m3
same,mass density,"313.15 K, x1 = 0.9404",920.8 ± 20 kg/m3
same,mass density,"313.15 K, x1 = 1",928.8 ± 20 kg/m3
same,viscosity,"318.15 K, x1 = 0.0803",1.84 ± 0.09 mPa·s
same,viscosity,"318.15 K, x1 = 0.1609",1.68 ± 0.08 mPa·s
same,viscosity,"318.15 K, x1 = 0.2403",1.53 ± 0.08 mPa·s
same,viscosity,"318.15 K, x1 = 0.3473",1.38 ± 0.07 mPa·s
same,viscosity,"318.15 K, x1 = 0.4404",1.29 ± 0.07 mPa·s
same,viscosity,"318.15 K, x1 = 0.5619",1.21 ± 0.06 mPa·s
same,viscosity,"318.15 K, x1 = 0.6501",1.19 ± 0.06 mPa·s
same,viscosity,"318.15 K, x1 = 0.747",1.21 ± 0.06 mPa·s
same,viscosity,"318.15 K, x1 = 0.8494",1.28 ± 0.06 mPa·s
same,viscosity,"318.15 K, x1 = 0.9404",1.37 ± 0.07 mPa·s
same,viscosity,"318.15 K, x1 = 1",1.46 ± 0.07 mPa·s
same,mass density,"318.15 K, x1 = 0.0803",805.7 ± 20 kg/m3
same,mass density,"318.15 K, x1 = 0.1609",815.7 ± 20 kg/m3
same,mass density,"318.15 K, x1 = 0.2403",825.6 ± 20 kg/m3
same,mass density,"318.15 K, x1 = 0.3473",839.1 ± 20 kg/m3
same,mass density,"318.15 K, x1 = 0.4404",851 ± 20 kg/m3
same,mass density,"318.15 K, x1 = 0.5619",866.6 ± 20 kg/m3
same,mass density,"318.15 K, x1 = 0.6501",878.1 ± 20 kg/m3
same,mass density,"318.15 K, x1 = 0.747",890.7 ± 20 kg/m3
same,mass density,"318.15 K, x1 = 0.8494",904.3 ± 20 kg/m3
same,mass density,"318.15 K, x1 = 0.9404",916.4 ± 20 kg/m3
same,mass density,"318.15 K, x1 = 1",924.4 ± 20 kg/m3
same,viscosity,"323.15 K, x1 = 0.0803",1.65 ± 0.08 mPa·s
same,viscosity,"323.15 K, x1 = 0.1609",1.52 ± 0.08 mPa·s
same,viscosity,"323.15 K, x1 = 0.2403",1.4 ± 0.07 mPa·s
same,viscosity,"323.15 K, x1 = 0.3473",1.27 ± 0.06 mPa·s
same,viscosity,"323.15 K, x1 = 0.4404",1.19 ± 0.06 mPa·s
same,viscosity,"323.15 K, x1 = 0.5619",1.21 ± 0.06 mPa·s
same,viscosity,"323.15 K, x1 = 0.6501",1.107 ± 0.056 mPa·s
same,viscosity,"323.15 K, x1 = 0.747",1.13 ± 0.06 mPa·s
same,viscosity,"323.15 K, x1 = 0.8494",1.19 ± 0.06 mPa·s
same,viscosity,"323.15 K, x1 = 0.9404",1.27 ± 0.06 mPa·s
same,viscosity,"323.15 K, x1 = 1",1.34 ± 0.07 mPa·s
same,mass density,"323.15 K, x1 = 0.0803",801.9 ± 20 kg/m3
same,mass density,"323.15 K, x1 = 0.1609",811.9 ± 20 kg/m3
same,mass density,"323.15 K, x1 = 0.2403",821.8 ± 20 kg/m3
same,mass density,"323.15 K, x1 = 0.3473",835.3 ± 20 kg/m3
same,mass density,"323.15 K, x1 = 0.4404",847.1 ± 20 kg/m3
same,mass density,"323.15 K, x1 = 0.5619",862.8 ± 20 kg/m3
same,mass density,"323.15 K, x1 = 0.6501",874.2 ± 20 kg/m3
same,mass density,"323.15 K, x1 = 0.747",886.9 ± 20 kg/m3
same,mass density,"323.15 K, x1 = 0.8494",900.5 ± 20 kg/m3
same,mass density,"323.15 K, x1 = 0.9404",912.7 ± 20 kg/m3
same,mass density,"323.15 K, x1 = 1",920.7 ± 20 kg/m3
